Where a SMILES comes first, the peptide text is derived from it.
target: T1, Elastase from human neutrophils (Homo sapiens, UniProt P08246); assay: Enzymatic assay, elastase; details: Elastase IC50
T1 sequence (P08246 30-267): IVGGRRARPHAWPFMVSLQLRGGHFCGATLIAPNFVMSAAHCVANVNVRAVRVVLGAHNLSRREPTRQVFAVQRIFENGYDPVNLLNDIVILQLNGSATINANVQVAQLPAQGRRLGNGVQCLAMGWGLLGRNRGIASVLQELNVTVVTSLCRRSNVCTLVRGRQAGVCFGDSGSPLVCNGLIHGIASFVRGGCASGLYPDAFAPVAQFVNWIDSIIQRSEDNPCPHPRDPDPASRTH

SMILES	IC50
C[C@@H]1NC(=O)[C@H]([C@@H](C)O)NC(=O)[C@@H]2CSSC[C@H](NC(=O)[C@H](CCC(N)=O)NC(=O)[C@@H]3CCCN3C(=O)[C@@H]3CCCN3C(=O)[C@H](CC3CCCCC3)NC(=O)[C@H](CO)NC1=O)C(=O)N[C@@H](Cc1ccc(O)cc1)C(=O)N1CCC[C@@H]1C(=O)N1CCC[C@H]1C(=O)N[C@@H](CCc1ccccc1)C(=O)N2 [Ex. 162] (HELM PEPTIDE1{[O=C([C@H](CCc1ccccc1)N[*:1])[*:2]].C.T.A.S.[Cha].P.P.Q.C.Y.[dP].P}$PEPTIDE1,PEPTIDE1,2:R3-10:R3|PEPTIDE1,PEPTIDE1,1:R1-13:R2$$$V2.0)	0.0125 µM
CCCC[C@@H]1NC(=O)[C@@H]2CCCN2C(=O)[C@H]2CCCN2C(=O)[C@H](Cc2ccc(O)cc2)NC(=O)[C@H](CCCCN)NC(=O)[C@H](CCC(N)=O)NC(=O)[C@@H]2CCCN2C(=O)[C@@H]2CCCN2C(=O)[C@H]([C@@H](C)CC)NC(=O)[C@H](CO)NC(=O)[C@H](C)NC(=O)[C@H]([C@@H](C)O)NC(=O)[C@H]([C@@H](C)O)NC1=O [Ex. 106] (HELM PEPTIDE1{[Nle].T.T.A.S.I.P.P.Q.K.Y.[dP].P}$PEPTIDE1,PEPTIDE1,1:R1-13:R2$$$V2.0)	0.049 µM
CC[C@H](C)[C@@H]1NC(=O)[C@H](CO)NC(=O)[C@H](C)NC(=O)[C@H]([C@@H](C)O)NC(=O)[C@H](CCC(=O)O)NC(=O)[C@H](CCc2ccccc2)NC(=O)[C@@H]2CCCN2C(=O)[C@H]2CCCN2C(=O)[C@H](Cc2ccc(O)cc2)NC(=O)[C@H](CCCCN)NC(=O)[C@H](CCC(N)=O)NC(=O)[C@@H]2CCCN2C(=O)[C@@H]2CCCN2C1=O [Ex. 132] (HELM PEPTIDE1{[O=C([C@H](CCc1ccccc1)N[*:1])[*:2]].E.T.A.S.I.P.P.Q.K.Y.[dP].P}$PEPTIDE1,PEPTIDE1,1:R1-13:R2$$$V2.0)	0.026 µM
CCCC[C@@H]1NC(=O)[C@H](CCC(N)=O)NC(=O)[C@H]2CCCN2C(=O)[C@H](Cc2ccccc2Cl)NC(=O)[C@@H]2CSSC[C@H](NC1=O)C(=O)N[C@@H]([C@@H](C)O)C(=O)N[C@@H](C)C(=O)N[C@@H](CO)C(=O)N[C@@H](CC1CCCCC1)C(=O)N1CCC[C@H]1C(=O)N1CCC[C@H]1C(=O)N[C@@H](CCC(N)=O)C(=O)N2 [compound 175] (HELM PEPTIDE1{[Nle].C.T.A.S.[Cha].P.P.Q.C.[O=C([C@H](Cc1ccccc1Cl)N[*:1])[*:2]].[dP].Q}$PEPTIDE1,PEPTIDE1,2:R3-10:R3|PEPTIDE1,PEPTIDE1,1:R1-13:R2$$$V2.0)	0.012 µM
CCCC[C@@H]1NC(=O)[C@@H]2CCCN2C(=O)[C@H]2CCCN2C(=O)[C@H](Cc2ccc(O)cc2)NC(=O)[C@H](CCCNC(=N)N)NC(=O)[C@H](CCC(N)=O)NC(=O)[C@@H]2CCCN2C(=O)[C@@H]2CCCN2C(=O)[C@H]([C@@H](C)CC)NC(=O)[C@H](CO)NC(=O)[C@H](C)NC(=O)[C@H]([C@@H](C)O)NC(=O)[C@H](CCC(N)=O)NC1=O [Ex. 107] (HELM PEPTIDE1{[Nle].Q.T.A.S.I.P.P.Q.R.Y.[dP].P}$PEPTIDE1,PEPTIDE1,1:R1-13:R2$$$V2.0)	0.051 µM
CC[C@H](C)[C@@H]1NC(=O)[C@H](CO)NC(=O)[C@H](C)NC(=O)[C@H]([C@@H](C)O)NC(=O)[C@@H]2CSSC[C@H](NC(=O)[C@H](CCC(N)=O)NC(=O)[C@@H]3CCCN3C(=O)[C@@H]3CCCN3C1=O)C(=O)N[C@@H](Cc1ccc(O)cc1)C(=O)N1CCC[C@@H]1C(=O)N[C@@H](CCC(N)=O)C(=O)N[C@@H](CCc1ccccc1)C(=O)N2 [compound 173] (HELM PEPTIDE1{[O=C([C@H](CCc1ccccc1)N[*:1])[*:2]].C.T.A.S.I.P.P.Q.C.Y.[dP].Q}$PEPTIDE1,PEPTIDE1,2:R3-10:R3|PEPTIDE1,PEPTIDE1,1:R1-13:R2$$$V2.0)	0.012 µM
CCCCCCCC[C@@H]1NC(=O)[C@@H]2CCCN2C(=O)[C@H]2CCCN2C(=O)[C@H](CCC(N)=O)NC(=O)[C@@H]2CSSC[C@H](NC1=O)C(=O)N[C@@H]([C@@H](C)O)C(=O)N[C@@H](C)C(=O)N[C@@H](CO)C(=O)N[C@@H](CC1CCCCC1)C(=O)N1CCC[C@H]1C(=O)N1CCC[C@H]1C(=O)N[C@@H](CCC(N)=O)C(=O)N2 [Ex. 159] (HELM PEPTIDE1{[CCCCCCCC[C@H](N[*:1])C(=O)[*:2]].C.T.A.S.[Cha].P.P.Q.C.Q.[dP].P}$PEPTIDE1,PEPTIDE1,2:R3-10:R3|PEPTIDE1,PEPTIDE1,1:R1-13:R2$$$V2.0)	0.007 µM
CCCCCCCC[C@@H]1NC(=O)[C@H](CO)NC(=O)[C@H](C)NC(=O)[C@H]([C@@H](C)O)NC(=O)[C@@H]2CSSC[C@H](NC(=O)[C@H](CCC(N)=O)NC(=O)[C@@H]3CCCN3C(=O)[C@@H]3CCCN3C1=O)C(=O)N[C@@H](CCC(N)=O)C(=O)N1CCC[C@@H]1C(=O)N1CCC[C@H]1C(=O)N[C@@H](CCCC)C(=O)N2 [Ex. 129] (HELM PEPTIDE1{[Nle].C.T.A.S.[CCCCCCCC[C@H](N[*:1])C(=O)[*:2]].P.P.Q.C.Q.[dP].P}$PEPTIDE1,PEPTIDE1,2:R3-10:R3|PEPTIDE1,PEPTIDE1,1:R1-13:R2$$$V2.0)	0.03 µM
CCCCCCCC[C@@H]1NC(=O)[C@@H]2CCCN2C(=O)[C@H]2CCCN2C(=O)[C@H](Cc2ccc(O)cc2)NC(=O)[C@H](CCC(N)=O)NC(=O)[C@H](CCC(N)=O)NC(=O)[C@@H]2CCCN2C(=O)[C@@H]2CCCN2C(=O)[C@H]([C@@H](C)CC)NC(=O)[C@H](CO)NC(=O)[C@H](C)NC(=O)[C@H]([C@@H](C)O)NC(=O)[C@H]([C@@H](C)O)NC1=O [Ex. 147] (HELM PEPTIDE1{[CCCCCCCC[C@H](N[*:1])C(=O)[*:2]].T.T.A.S.I.P.P.Q.Q.Y.[dP].P}$PEPTIDE1,PEPTIDE1,1:R1-13:R2$$$V2.0)	0.011 µM
CCCC[C@@H]1NC(=O)[C@@H]2CCCN2C(=O)[C@H]2CCCN2C(=O)[C@H](Cc2ccc(O)cc2)NC(=O)[C@@H]2CSSC[C@H](NC1=O)C(=O)N[C@@H]([C@@H](C)O)C(=O)N[C@@H](C)C(=O)N[C@@H](CO)C(=O)N[C@@H](CC(C)C)C(=O)N1CCC[C@H]1C(=O)N1CCC[C@H]1C(=O)N[C@@H](Cc1ccc(O)cc1)C(=O)N2 [Ex. 113] (HELM PEPTIDE1{[Nle].C.T.A.S.L.P.P.Y.C.Y.[dP].P}$PEPTIDE1,PEPTIDE1,2:R3-10:R3|PEPTIDE1,PEPTIDE1,1:R1-13:R2$$$V2.0)	0.035 µM
CCCCCCCC[C@@H]1NC(=O)[C@H](CCC(N)=O)NC(=O)[C@H]2CCCN2C(=O)[C@H](CCC(N)=O)NC(=O)[C@@H]2CSSC[C@H](NC1=O)C(=O)N[C@@H]([C@@H](C)O)C(=O)N[C@@H](C)C(=O)N[C@@H](CO)C(=O)N[C@@H](CCCCCCCC)C(=O)N1CCC[C@H]1C(=O)N1CCC[C@H]1C(=O)N[C@@H](CCC(N)=O)C(=O)N2 [compound 178] (HELM PEPTIDE1{[CCCCCCCC[C@H](N[*:1])C(=O)[*:2]].C.T.A.S.[CCCCCCCC[C@H](N[*:1])C(=O)[*:2]].P.P.Q.C.Q.[dP].Q}$PEPTIDE1,PEPTIDE1,2:R3-10:R3|PEPTIDE1,PEPTIDE1,1:R1-13:R2$$$V2.0)	0.006 µM
CC[C@H](C)[C@@H]1NC(=O)[C@H](CO)NC(=O)[C@H](C)NC(=O)[C@H]([C@@H](C)O)NC(=O)[C@H]([C@@H](C)O)NC(=O)[C@H](CCc2ccccc2)NC(=O)[C@@H]2CCCN2C(=O)[C@H]2CCCN2C(=O)[C@H](Cc2ccc(O)cc2)NC(=O)[C@H](CCC(N)=O)NC(=O)[C@H](CCC(N)=O)NC(=O)[C@@H]2CCCN2C(=O)[C@@H]2CCCN2C1=O [Ex. 134] (HELM PEPTIDE1{[O=C([C@H](CCc1ccccc1)N[*:1])[*:2]].T.T.A.S.I.P.P.Q.Q.Y.[dP].P}$PEPTIDE1,PEPTIDE1,1:R1-13:R2$$$V2.0)	0.023 µM
CCCC[C@@H]1NC(=O)[C@H]([C@@H](C)O)NC(=O)[C@@H](Cc2ccccc2)NC(=O)[C@H](Cc2ccc(O)cc2)NC(=O)[C@@H]2CSSC[C@H](NC1=O)C(=O)N[C@@H]([C@@H](C)O)C(=O)N[C@@H](C)C(=O)N[C@@H](CO)C(=O)N[C@@H]([C@@H](C)CC)C(=O)N1CCC[C@H]1C(=O)N1CCC[C@H]1C(=O)N[C@@H](CCC(N)=O)C(=O)N2 [Ex. 128] (HELM PEPTIDE1{A.S.I.P.P.Q.C.Y.[dF].T.[Nle].C.T}$PEPTIDE1,PEPTIDE1,7:R3-12:R3|PEPTIDE1,PEPTIDE1,1:R1-13:R2$$$V2.0)	0.04 µM
CCCC[C@@H]1NC(=O)[C@@H]2CCCN2C(=O)[C@H]2CCCN2C(=O)[C@H](Cc2ccc(O)cc2)NC(=O)[C@H](CCCNC(=N)N)NC(=O)[C@H](CCC(N)=O)NC(=O)[C@@H]2CCCN2C(=O)[C@@H]2CCCN2C(=O)[C@H]([C@@H](C)CC)NC(=O)[C@H](CO)NC(=O)[C@H](C)NC(=O)[C@H]([C@@H](C)O)NC(=O)[C@H](CCC(=O)O)NC1=O [Ex. 105] (HELM PEPTIDE1{[Nle].E.T.A.S.I.P.P.Q.R.Y.[dP].P}$PEPTIDE1,PEPTIDE1,1:R1-13:R2$$$V2.0)	0.034 µM
CCCCCCCC[C@@H]1NC(=O)[C@@H]2CCCN2C(=O)[C@H]2CCCN2C(=O)[C@H](Cc2ccccc2)NC(=O)[C@@H]2CSSC[C@H](NC1=O)C(=O)N[C@@H]([C@@H](C)O)C(=O)N[C@@H](C)C(=O)N[C@@H](CO)C(=O)N[C@@H](CC1CCCCC1)C(=O)N1CCC[C@H]1C(=O)N1CCC[C@H]1C(=O)N[C@@H](CCC(N)=O)C(=O)N2 [Ex. 157] (HELM PEPTIDE1{[CCCCCCCC[C@H](N[*:1])C(=O)[*:2]].C.T.A.S.[Cha].P.P.Q.C.F.[dP].P}$PEPTIDE1,PEPTIDE1,2:R3-10:R3|PEPTIDE1,PEPTIDE1,1:R1-13:R2$$$V2.0)	0.007 µM
CCCCCCCC[C@@H]1NC(=O)[C@H](CO)NC(=O)[C@H](C)NC(=O)[C@H]([C@@H](C)O)NC(=O)[C@@H]2CSSC[C@H](NC(=O)[C@H](CCC(N)=O)NC(=O)[C@@H]3CCCN3C(=O)[C@@H]3CCCN3C1=O)C(=O)N[C@@H](Cc1ccc(O)cc1)C(=O)N1CCC[C@@H]1C(=O)N1CCC[C@H]1C(=O)N[C@@H](CCc1ccccc1)C(=O)N2 [Ex. 161] (HELM PEPTIDE1{[O=C([C@H](CCc1ccccc1)N[*:1])[*:2]].C.T.A.S.[CCCCCCCC[C@H](N[*:1])C(=O)[*:2]].P.P.Q.C.Y.[dP].P}$PEPTIDE1,PEPTIDE1,2:R3-10:R3|PEPTIDE1,PEPTIDE1,1:R1-13:R2$$$V2.0)	0.006 µM
